According to patent US8466188B2, “Use of spiro-oxindole compounds as therapeutic agents” (Xenon Pharmaceuticals Inc., priority 2006, dated 2013):

| melting point | SMILES |
| --- | --- |
| 252 °C (dec.) | O=C1Nc2ccccc2C12COc1cc3c(cc12)OCO3 (stereo not drawn) [Example 1.8, spiro[furo[2,3-f][1,3]benzodioxole-7,3′-indol]-2′(1′H)-one] |
| 117 to 119 °C | Cc1ccc(CN2C(=O)C3(COc4cc5c(cc43)OCO5)c3ccccc32)o1 (stereo not drawn) [Example 10.65, 1′-[(5-methyl-2-furyl)methyl]spiro[furo[2,3-f][1,3]benzodioxole-7,3′-indol]-2′(1′H)-one] |
| 247 to 250 °C | O=C1N(Cc2ccc(=O)[nH]c2)c2ccccc2C12COc1cc3c(cc12)OCO3 (stereo not drawn) [Example 10.82, 1′-[(6-oxo-1,6-dihydropyridin-3-yl)methyl]spiro[furo[2,3-f][1,3]benzodioxole-7,3′-indol]-2′(1′H)-one] |
| 194 to 197 °C | O=C1N(Cc2nnc(Cl)s2)c2ccccc2C12COc1cc3c(cc12)OCO3 (stereo not drawn) [Example 10.85, 1′-[(5-chloro-1,3,4-thiadiazol-2-yl)methyl]spiro[furo[2,3-f][1,3]benzodioxole-7,3′-indol]-2′(1′H)-one] |
| 173 to 175 °C | CCCCCN1C(=O)C2(COc3cc4c(cc32)OCO4)c2c(C(=O)Nc3cccc(OC)c3)cccc21 (stereo not drawn) [Example 29.1, N-(3-methoxyphenyl)-2′-oxo-1′-pentyl-1′,2′-dihydrospiro[furo[2,3-f][1,3]benzodioxole-7,3′-indole]-4′-carboxamide] |
| 174 to 176 °C | CN(C)c1ccc(-c2cccc3c2C2(COc4cc5c(cc42)OCO5)C(=O)N3Cc2ccc(C(F)(F)F)o2)cn1 (stereo not drawn) [Example 4.7, 4′-[6-(dimethylamino)pyridin-3-yl]-1′-{[5-(trifluoromethyl)-2-furyl]methyl}spiro[furo[2,3-f][1,3]benzodioxole-7,3′-indol]-2′(1′H)-one] |
| 167 to 169 °C | O=C1N(Cc2ccc(C(F)(F)F)o2)c2cccc(-c3ccoc3)c2C12COc1cc3c(cc12)CCO3 (stereo not drawn) [Example 4.12, 4′-(3-furyl)-1′-{[5-(trifluoromethyl)-2-furyl]methyl}-5,6-dihydrospiro[benzo[1,2-b:5,4-b′]difuran-3,3′-indol]-2′(1′H)-one] |
| 97 to 100 °C | O=C(CN1C(=O)C2(COc3cc(F)c(F)cc32)c2ccccc21)Nc1ccccc1F (stereo not drawn) [Example 3.9, 2-(5,6-difluoro-2′-oxospiro[1-benzofuran-3,3′-indol]-1′(2′H)-yl)-N-(2-fluorophenyl)acetamide] |
| 270 to 272 °C | O=C1Nc2cccc(-c3ccoc3)c2C12COc1cc3c(cc12)OCO3 (stereo not drawn) [Example 4.4, 4′-(3-furyl)spiro[furo[2,3-f][1,3]benzodioxole-7,3′-indol]-2′(1′H)-one] |
| 228 to 229 °C | O=C(O)CN1C(=O)C2(COc3cc4c(cc32)CCO4)c2c(Cl)cccc21 (stereo not drawn) [Example 2.2, (4′-chloro-2′-oxo-5,6-dihydrospiro[benzo[1,2-b:5,4-b′]difuran-3,3′-indol]-1′(2′H)-yl)acetic acid] |
| 174 to 175 °C | O=C1N(Cc2ccc(F)cc2Cl)c2ccccc2C12COc1cc3c(cc12)OCO3 (stereo not drawn) [Example 10.30, 1′-(2-chloro-4-fluorobenzyl)spiro[furo[2,3-f][1,3]benzodioxole-7,3′-indol]-2′(1′H)-one] |
| 190 to 192 °C | CC1(C)COc2cc3c(cc21)C1(CO3)C(=O)N(C(c2ccccc2)c2ccccc2)c2ccccc21 (stereo not drawn) [Example 1.20, 1′-(diphenylmethyl)-5,5-dimethyl-5,6-dihydrospiro[benzo[1,2-b:5,4-b′]difuran-3,3′-indol]-2′(1′H)-one] |
| 149 to 153 °C | COc1cccc2c1C1(COc3cc4c(cc31)OCO4)C(=O)N2Cc1ccc(C(F)(F)F)o1 (stereo not drawn) [Example 1.53, 4′-methoxy-1′{[5-(trifluoromethyl)-2-furyl]methyl}spiro[furo[2,3-f][1,3]benzodioxole-7,3′-indol]-2′(1′H)-one] |
| 160 to 165 °C | Cl.O=C1N(Cc2ccc(N3CCCC3)nc2)c2ccccc2C12COc1cc3c(cc12)OCO3 (stereo not drawn) |
| 157 to 160 °C | CC(C)N1CCC(CN2C(=O)C3(COc4cc5c(cc43)OCO5)c3cccc(F)c32)CC1.Cl (stereo not drawn) |
| 117 to 119 °C | Cc1cccc2c1C1(COc3cc4c(cc31)OCO4)C(=O)N2Cc1ccc(C(F)(F)F)o1 (stereo not drawn) [Example 10.75, 4′-methyl-1′-{[5-(trifluoromethyl)-2-furyl]methyl}spiro[furo[2,3-f][1,3]benzodioxole-7,3′-indol]-2′(1′H)-one] |
| 153 to 154 °C | O=C1N(CC2CCCCC2)c2ccccc2C12COc1cc3c(cc12)OCO3 (stereo not drawn) [Example 10.92, 1′-(cyclohexylmethyl)spiro[furo[2,3-f][1,3]benzodioxole-7,3′-indol]-2′(1′H)-one] |
| 225 to 228 °C | O=C1Nc2ccccc2C12COc1ccc(Br)cc12 (stereo not drawn) [Example 1.34, 5-bromospiro[1-benzofuran-3,3′-indol]-2′(1′H)-one] |
| > 200 °C | O=C1N(Cc2ccccn2)c2cccc(-c3cccnc3)c2C12COc1cc3c(cc12)CCO3 (stereo not drawn) [Example 4.11, 4′-pyridin-3-yl-1′-(pyridin-2-ylmethyl)-5,6-dihydrospiro[benzo[1,2-b:5,4-b′]difuran-3,3′-indol]-2′(1′H)-one] |
| 185 to 187 °C | O=C1Nc2cccc(-c3cncnc3)c2C12COc1cc3c(cc12)OCO3 (stereo not drawn) [Example 4.8, 4′-pyrimidin-5-ylspiro[furo[2,3-f][1,3]benzodioxole-7,3′-indol]-2′(1′H)-one] |

| melting point | SMILES |
| --- | --- |
| 168 to 170 °C | Cl.O=C1N(CCC2CCN(C3CCOCC3)CC2)c2ccccc2C12COc1cc3c(cc12)OCO3 (stereo not drawn) |
| 174 to 177 °C | O=C1N(Cc2ccc(C(F)(F)F)o2)c2ccccc2C12COc1cc3c(cc12)OCC3 (stereo not drawn) [Example 10.71, 1′-{[5-(trifluoromethyl)-2-furyl]methyl}-6,7-dihydrospiro[benzo[1,2-b:4,5-b′]difuran-3,3′-indol]-2′(1′H)-one] |
| 98 to 100 °C | Cl.O=C1N(Cc2ccc(C(F)(F)F)o2)c2ccccc2C12COc1ccc(-c3cccnc3)cc12 (stereo not drawn) |
| 250 to 255 °C | Cc1ccc(F)c2c1N(CC(=O)Nc1ccccc1F)C(=O)C21COc2cc3c(cc21)CCO3 (stereo not drawn) [Example 3.14, 2-(4′-fluoro-7′-methyl-2′-oxo-5,6-dihydrospiro[benzo[1,2-b:5,4-b′]difuran-3,3′-indol]-1′(2′H)-yl)-N-(2-fluorophenyl)acetamide] |
| 48 to 50 °C | CCCCCN1C(=O)C2(COc3cc(F)c(F)cc32)c2ccccc21 (stereo not drawn) [Example 1.12, 5,6-difluoro-1′-pentylspiro[1-benzofuran-3,3′-indol]-2′(1′H)-one] |
| 65 to 75 °C | CC(C)(C)OC(=O)N1CCC(CN2C(=O)C3(COc4cc5c(cc43)C(C)(C)CO5)c3ccccc32)CC1 (stereo not drawn) [Example 10.18, tert-butyl 4-[(5,5-dimethyl-2′-oxo-5,6-dihydrospiro[benzo[1,2-b:5,4-b′]difuran-3,3′-indol]-1′(2′H)-yl)methyl]piperidine-1-carboxylate] |
| 127 to 130 °C | O=C1N(Cc2ccc(C(F)(F)F)s2)c2ccccc2C12COc1cc3c(cc12)OCO3 (stereo not drawn) [Example 10.73, 1′-{[5-(trifluoromethyl)-2-thienyl]methyl}spiro[furo[2,3-f][1,3]benzodioxole-7,3′-indol]-2′(1′H)-one] |
| 105 to 107 °C | CCCCCN1C(=O)C2(COc3cc4nc(C)sc4cc32)c2ccccc21 (stereo not drawn) [Example 1.32, 2-methyl-1′-pentylspiro[furo[2,3-f][1,3]benzothiazole-7,3′-indol]-2′(1′H)-one] |
| > 250 °C | CC1(C)Cc2cc3c(cc2O1)OCC31C(=O)N(CC(=O)Nc2ccccc2F)c2cccc(-c3cncnc3)c21 (stereo not drawn) [Example 4.3, 2-(6,6-dimethyl-2′-oxo-4′-pyrimidin-5-yl-5,6-dihydrospiro[benzo[1,2-b:5,4-b′]difuran-3,3′-indol]-1′(2′H)-yl)-N-(2-fluorophenyl)acetamide] |
| 158 to 160 °C | CCCN1C(=O)C2(COc3cc4c(cc32)OCO4)c2ccccc21 (stereo not drawn) [Example 10.40, 1′-Propylspiro[furo[2,3-f][1,3]benzodioxole-7,3′-indol]-2′(1′H)-one] |
| 195 to 197 °C | O=C1N(Cc2ccccn2)c2cccc(-c3ccoc3)c2C12COc1cc3c(cc12)CCO3 (stereo not drawn) [Example 4.9, 4′-(3-furyl)-1′-(pyridin-2-ylmethyl)-5,6-dihydrospiro[benzo[1,2-b:5,4-b′]difuran-3,3′-indol]-2′(1′H)-one] |
| 88 to 91 °C | O=C1N(Cc2cccc(OC(F)(F)F)c2)c2ccccc2C12COc1cc3c(cc12)OCO3 (stereo not drawn) [Example 10.37, 1′[3-(trifluoromethoxy)benzyl]spiro[furo[2,3-f][1,3]benzodioxole-7,3′-indol]-2′(1′H)-one] |
| 74 to 76 °C | CCCCCN1C(=O)C2(COc3cc(F)c(Cl)cc32)c2ccccc21 (stereo not drawn) [Example 1.15, 5-chloro-6-fluoro-1′-pentylspiro[1-benzofuran-3,3′-indol]-2′(1′H)-one] |
| 208 to 210 °C | Cl.O=C1N(Cc2ccccn2)c2ccccc2C12COc1cc3c(cc12)CCO3 (stereo not drawn) |
| 119 to 120 °C | CCCCN1C(=O)C2(COc3cc4c(cc32)OCO4)c2ccccc21 (stereo not drawn) [Example 10.33, 1′-butylspiro[furo[2,3-f][1,3]benzodioxole-7,3′-indol]-2′(1′H)-one] |
| 115 to 118 °C | Cn1cc(CN2C(=O)C3(COc4cc5c(cc43)OCO5)c3ccccc32)ccc1=O (stereo not drawn) [Example 10.83, 1′-[(1-methyl-6-oxo-1,6-dihydropyridin-3-yl)methyl]spiro[furo[2,3-f][1,3]benzodioxole-7,3′-indol]-2′(1′H)-one] |
| 155 to 156 °C | CC(C)N1CCC(CCN2C(=O)C3(COc4cc5c(cc43)OCO5)c3ccccc32)CC1.Cl (stereo not drawn) |
| 229 to 230 °C | O=C(CN1C(=O)C2(COc3cc4c(cc32)CCO4)c2cc(Cl)ccc21)Nc1ccccc1F (stereo not drawn) [Example 3.7, 2-(5′-chloro-2′-oxo-5,6-dihydrospiro[benzo[1,2-b:5,4-b′]difuran-3,3′-indol]-1′(2′H)-yl)-N-(2-fluorophenyl)acetamide] |
| 173 to 175 °C | CC(C)(C)OC(=O)N1CCC(CCN2C(=O)C3(COc4cc5c(cc43)OCO5)c3ccccc32)CC1 (stereo not drawn) [Example 10.96, tert-butyl 4-[2-(2′-oxospiro[furo[2,3-f][1,3]benzodioxole-7,3′-indol]-1′(2′H)-yl)ethyl]piperidine-1-carboxylate] |
